PubChem BioAssay AID330 (DTP/NCI, 2004)
Where “and” joins values, the source holds several entries; their conditions need not be identical. Identical values can stand only once. Inconclusive results and toxic doses are left out. How the source made its calls: active means survival T/C of 150% or more; inactive means T/C below 125% in these data.

Test system: P388 leukemia ip, CD2F1 mice, survival T/C
Assay: NCI In Vivo Anticancer Drug Screen. Data for tumor model P388 Leukemia (intraperitoneal) in CD2F1 (CDF1) mice
Conditions: endpoint: median survival time, higher = longer survival
Procedure, shortened: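 Mice carrying the transplanted tumor received test compound or vehicle. Survival was recorded in each group, and the value is the treated-group measurement divided by that of the vehicle-treated control group.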

[1] = dose: 50.0 mg/kg/injection, schedule: Q01DX009 (ip), vehicle: saline with Tween-80
[2] = dose: 100.0 mg/kg/injection, schedule: Q01DX009 (ip), vehicle: saline with Tween-80
[3] = dose: 200.0 mg/kg/injection, schedule: Q01DX009 (ip), vehicle: saline with Tween-80
[4] = dose: 100.0 mg/kg/injection, schedule: Q01DX001 (ip), vehicle: saline with Tween-80
[5] = dose: 200.0 mg/kg/injection, schedule: Q01DX001 (ip), vehicle: saline with Tween-80
[6] = dose: 400.0 mg/kg/injection, schedule: Q01DX001 (ip), vehicle: saline with Tween-80
[7] = dose: 60.0 mg/kg/injection, schedule: Q01DX005 (ip), vehicle: saline with Tween-80
[8] = dose: 120.0 mg/kg/injection, schedule: Q01DX005 (ip), vehicle: saline with Tween-80
[9] = dose: 240.0 mg/kg/injection, schedule: Q01DX005 (ip), vehicle: saline with Tween-80
[10] = dose: 12.5 mg/kg/injection, schedule: Q01DX009 (ip), vehicle: saline with Tween-80
[11] = dose: 25.0 mg/kg/injection, schedule: Q01DX009 (ip), vehicle: saline with Tween-80
[12] = dose: 25.0 mg/kg/injection, schedule: Q01DX005 (ip), vehicle: Klucel (hydroxypropylcellulose) (HPC)
[13] = dose: 50.0 mg/kg/injection, schedule: Q01DX005 (ip), vehicle: Klucel (hydroxypropylcellulose) (HPC)
[14] = dose: 100.0 mg/kg/injection, schedule: Q01DX005 (ip), vehicle: Klucel (hydroxypropylcellulose) (HPC)
[15] = dose: 200.0 mg/kg/injection, schedule: Q01DX005 (ip), vehicle: Klucel (hydroxypropylcellulose) (HPC)
[16] = dose: 12.5 mg/kg/injection, schedule: Q01DX005 (ip), vehicle: saline with Tween-80
[17] = dose: 25.0 mg/kg/injection, schedule: Q01DX005 (ip), vehicle: saline with Tween-80
[18] = dose: 50.0 mg/kg/injection, schedule: Q01DX005 (ip), vehicle: saline with Tween-80
[19] = dose: 100.0 mg/kg/injection, schedule: Q01DX005 (ip), vehicle: saline with Tween-80
[20] = dose: 200.0 mg/kg/injection, schedule: Q01DX005 (ip), vehicle: saline with Tween-80

Measured: T/C

CS(C)=O.CS(C)=O.CS(C)=O.CS(C)=O.[Cl][Ru][Cl]
inactive: dose: 60.0 mg/kg/injection, schedule: Q01DX005 (ip), vehicle: Klucel (hydroxypropylcellulose) (HPC) 105 % of control | dose: 100.0 mg/kg/injection, schedule: Q04DX003 (ip), vehicle: saline 97 % of control | dose: 120.0 mg/kg/injection, schedule: Q01DX005 (ip), vehicle: Klucel (hydroxypropylcellulose) (HPC) 101 % of control | dose: 200.0 mg/kg/injection, schedule: Q04DX003 (ip), vehicle: saline 99 % of control | dose: 240.0 mg/kg/injection, schedule: Q01DX005 (ip), vehicle: Klucel (hydroxypropylcellulose) (HPC) 107 % of control | dose: 400.0 mg/kg/injection, schedule: Q04DX003 (ip), vehicle: saline 92 % of control

N#Cc1ccc(Br)cc1[N+](=O)[O-]
inactive: dose: 0.78 mg/kg/injection, schedule: Q01DX009 (ip), vehicle: Klucel (hydroxypropylcellulose) (HPC) 106 % of control | dose: 1.56 mg/kg/injection, schedule: Q01DX009 (ip), vehicle: Klucel (hydroxypropylcellulose) (HPC) 102 % of control | dose: 3.12 mg/kg/injection, schedule: Q01DX009 (ip), vehicle: Klucel (hydroxypropylcellulose) (HPC) 100 % of control and 96 % of control

COc1ccc2nc(NCCNCCO)cc(NCCNCCO)c2c1
inactive: dose: 30.0 mg/kg/injection, schedule: Q01DX005 (ip), vehicle: water 98 % of control | dose: 60.0 mg/kg/injection, schedule: Q01DX005 (ip), vehicle: water 97 % of control

Cc1ccc2nc(CC(O)(c3ccccc3)c3ccccc3)ccc2c1
inactive: [1] 110 % of control | [2] 95 % of control | [3] 94 % of control

O=[N+]([O-])c1ccc(N2CCN(c3ccccc3)CC2)c2nonc12
inactive: dose: 50.0 mg/kg/injection, schedule: Q01DX009 (ip), vehicle: suspension in saline 100 % of control | dose: 100.0 mg/kg/injection, schedule: Q01DX009 (ip), vehicle: suspension in saline 99 % of control | dose: 200.0 mg/kg/injection, schedule: Q01DX009 (ip), vehicle: suspension in saline 99 % of control and 100 % of control

CCC(c1ccc(OC)cc1)C(NC(=S)Nc1cccc(C)c1)c1ccc(OC)cc1 (stereo unspecified)
inactive: [4] 90 % of control | [5] 92 % of control | [6] 93 % of control

CCOC(=O)C(C#N)C(=N)C1CC(C)OC1=O (stereo unspecified)
inactive: [7] 100 % of control | [8] 100 % of control | [9] 98 % of control

C=[CH][Sn]([CH]=C)([CH2]C)[CH2]C
inactive: dose: 50.0 mg/kg/injection, schedule: Q01DX005 (ip), vehicle: saline 102 % of control | dose: 100.0 mg/kg/injection, schedule: Q01DX005 (ip), vehicle: saline 104 % of control | dose: 200.0 mg/kg/injection, schedule: Q01DX005 (ip), vehicle: saline 114 % of control

CC(C)(Oc1ccc(C(=O)c2ccc(Cl)cc2)cc1)C(=O)O
inactive: [1] 93 % of control | [2] 102 % of control | [3] 111 % of control

C=C[Se](=C(C#N)C#N)c1ccccc1 (stereo unspecified)
inactive: dose: 25.0 mg/kg/injection, schedule: Q04DX002 (ip), vehicle: saline 111 % of control | dose: 50.0 mg/kg/injection, schedule: Q04DX002 (ip), vehicle: saline 104 % of control | dose: 100.0 mg/kg/injection, schedule: Q04DX002 (ip), vehicle: saline 99 % of control and 101 % of control | dose: 200.0 mg/kg/injection, schedule: Q04DX002 (ip), vehicle: saline 110 % of control | dose: 400.0 mg/kg/injection, schedule: Q04DX002 (ip), vehicle: saline 118 % of control

Nc1ccc2ccc(O)cc2c1
inactive: [10] 100 % of control | [11] 100 % of control | [1] 100 % of control | [2] 98 % of control

O=S(=O)(O)c1ccc(/C2=c3\cc/c([n-]3)=C(\c3ccc(S(=O)(=O)O)cc3)c3ccc([n-]3)/C(c3ccc(S(=O)(=O)O)cc3)=c3/cc/c([n-]3)=C(\c3ccc(S(=O)(=O)O)cc3)c3ccc2[n-]3)cc1.[Zn]
inactive: dose: 0.98 mg/kg/injection, schedule: Q01DX009 (ip), vehicle: saline with Tween-80 103 % of control and 111 % of control | dose: 1.95 mg/kg/injection, schedule: Q01DX009 (ip), vehicle: saline with Tween-80 100 % of control and 104 % of control | dose: 3.9 mg/kg/injection, schedule: Q01DX009 (ip), vehicle: saline with Tween-80 99 % of control and 114 % of control | dose: 7.8 mg/kg/injection, schedule: Q01DX009 (ip), vehicle: saline with Tween-80 114 % of control | dose: 15.62 mg/kg/injection, schedule: Q01DX009 (ip), vehicle: saline with Tween-80 100 % of control and 112 % of control

CCCC/C=C\CCCCCCCCCC1=C(O)C(=O)C=C(OC)C1=O
inactive: dose: 25.5 mg/kg/injection, schedule: Q01DX005 (ip), vehicle: Klucel (hydroxypropylcellulose) (HPC) 116 % of control

CCCn1c(C)nc2c(N)cc(Cl)cc21
inactive: dose: 12.5 mg/kg/injection, schedule: Q01DX005 (ip), vehicle: Klucel (hydroxypropylcellulose) (HPC) 99 % of control | [12] 95 % of control | [13] 103 % of control | [14] 105 % of control

O=C1CCC2CN3CCc4c([nH]c5ccccc45)C3CC2C1 (stereo unspecified)
inactive: [7] 100 % of control | [8] 106 % of control

CCCCCC(=O)O[C@H]1CC[C@@H]2[C@H]1[C@@H]1CCC=C1C2(C)C
inactive: dose: 100.0 mg/kg/injection, schedule: Q01DX001 (ip), vehicle: Klucel (hydroxypropylcellulose) (HPC) 97 % of control | dose: 200.0 mg/kg/injection, schedule: Q01DX001 (ip), vehicle: Klucel (hydroxypropylcellulose) (HPC) 99 % of control | dose: 400.0 mg/kg/injection, schedule: Q01DX001 (ip), vehicle: Klucel (hydroxypropylcellulose) (HPC) 100 % of control

[CH3][Sn]([CH3])([n]1nnc2ccccc21)[n]1nnc2ccccc21
inactive: [12] 114 % of control | [13] 115 % of control and 121 % of control | [14] 112 % of control and 115 % of control | [15] 112 % of control

O=C(Nc1ccc(O)c2c1C(=O)c1ccccc1C2=O)Oc1ccccc1
inactive: [13] 101 % of control | [14] 102 % of control | [15] 99 % of control

CCCCCCC(=O)/C=C/c1ccc(OC(=O)c2ccc(Br)cc2)cc1
inactive: [10] 104 % of control | [11] 96 % of control | [1] 96 % of control

CCN(CC)CCCC(c1ccccc1)c1ccccc1
inactive: [16] 99 % of control | [17] 94 % of control | [18] 99 % of control and 110 % of control

CC(=O)Nc1c(Cl)c(Cl)c2c(c1Cl)Cc1cc(Cl)c(Cl)cc1-2
inactive: [10] 100 % of control | [11] 100 % of control | [1] 95 % of control | dose: 100.0 mg/kg/injection, schedule: Q04DX003 (ip), vehicle: saline with Tween-80 109 % of control | dose: 200.0 mg/kg/injection, schedule: Q04DX003 (ip), vehicle: saline with Tween-80 100 % of control | dose: 400.0 mg/kg/injection, schedule: Q04DX003 (ip), vehicle: saline with Tween-80 104 % of control

CSC(=S)n1nc(-c2ccccc2)c(N=Nc2cccc(Cl)c2Cl)c1-c1ccccc1
inactive: [4] 87 % of control | [5] 87 % of control | [6] 97 % of control

O=C(Sc1ccccc1)C1CC=CCC1 (stereo unspecified)
inactive: dose: 50.0 mg/kg/injection, schedule: Q01DX009 (ip), vehicle: Klucel (hydroxypropylcellulose) (HPC) 109 % of control | dose: 100.0 mg/kg/injection, schedule: Q01DX009 (ip), vehicle: Klucel (hydroxypropylcellulose) (HPC) 105 % of control

CSCCC(NC(=O)OC(C)(C)C)C(=O)ON1C(=O)CCC1=O (stereo unspecified)
inactive: [16] 101 % of control and 107 % of control | [17] 103 % of control and 107 % of control | [18] 117 % of control and 98 % of control | [19] 106 % of control and 113 % of control and 116 % of control | [20] 107 % of control and 97 % of control

COC(=O)C1CC1(Cl)OC (stereo unspecified)
inactive: [1] 102 % of control | [2] 102 % of control | [3] 105 % of control

COc1ccc(C2C3=C(CCCC3=O)OC3=C2C(=O)CCC3)cc1
inactive: [7] 96 % of control | [8] 99 % of control | [9] 100 % of control

CC(O)CN1C(=O)c2cccc3cc([N+](=O)[O-])cc(c23)C1=O (stereo unspecified)
inactive: [18] 96 % of control | [19] 104 % of control | [20] 104 % of control
